According to ChEMBL document CHEMBL1201862, “PubChem BioAssay data set” (2004):
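How tested: cells in 96-well plates exposed to compound for 48 hours at five concentrations. GI50 marks 50% less growth.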 Calls of active or inactive are those of the source. Rule as the data show it: active = GI50 up to about 1.1 µM and inactive = higher.

Assays:
Experiment in all cases: NCI anticancer screen, dose series, 48 h
SF-268 = system: SF-268
TK-10 = system: TK-10
SNB-75 = system: SNB-75
Hs-578T = system: Hs-578T
MDA-N = system: MDA-N
COLO 205 = system: COLO 205
SK-MEL-5 = system: SK-MEL-5
SF-295 = system: SF-295
SN12C = system: SN12C
OVCAR-8 = system: OVCAR-8
CAKI-1 = system: CAKI-1
SK-OV-3 = system: SK-OV-3
IGROV-1 = system: IGROV-1
HCC 2998 = system: HCC 2998
Malme-3M = system: Malme-3M
HOP-62 = system: HOP-62
OVCAR-4 = system: OVCAR-4
LOX IMVI = system: LOX IMVI
MCF7 = system: MCF7
NCI-H226 = system: NCI-H226
MDA-MB-231 = system: MDA-MB-231
DU-145 = system: DU-145
OVCAR-3 = system: OVCAR-3
A498 = system: A498
EKVX = system: EKVX
NCI-H23 = system: NCI-H23
HCT-116 = system: HCT-116
K562 = system: K562
A549 = system: A549
RXF 393 = system: RXF 393
NCI-H460 = system: NCI-H460
PC-3 = system: PC-3
SK-MEL-28 = system: SK-MEL-28
UACC-62 = system: UACC-62
UACC-257 = system: UACC-257
KM12 = system: KM12
NCI/ADR-RES = system: NCI/ADR-RES
OVCAR-5 = system: OVCAR-5
ACHN = system: ACHN
CCRF-CEM = system: CCRF-CEM
BT-549 = system: BT-549
MDA-MB-435 = system: MDA-MB-435
SW-620 = system: SW-620
T47D = system: T47D
RPMI-8226 = system: RPMI-8226
HL-60 = system: HL-60
HOP-92 = system: HOP-92
UO-31 = system: UO-31
U-251 = system: U-251
NCI-H522 = system: NCI-H522
SNB-19 = system: SNB-19
HT-29 = system: HT-29
SR = system: SR
HCT-15 = system: HCT-15
M14 = system: M14
SF-539 = system: SF-539
SK-MEL-2 = system: SK-MEL-2
MOLT-4 = system: MOLT-4
786-0 = system: 786-0

Compound: CC(=O)OCC1OC(n2c(-c3ccc(C)cc3)cc(-c3ccco3)c(C#N)c2=S)C(OC(C)=O)C(OC(C)=O)C1OC(C)=O (stereo unspecified)
- GI50 (SF-268): 56.8 µM (inactive)
- GI50 (TK-10): 52.1 µM (inactive)
- GI50 (SNB-75): 25.1 µM (inactive)
- GI50 (Hs-578T): 27.9 µM (inactive)
- GI50 (MDA-N): > 100 µM (inactive)
- GI50 (COLO 205): > 100 µM (inactive)
- GI50 (SK-MEL-5): 65.2 µM (inactive)
- GI50 (SF-295): > 100 µM (inactive)
- GI50 (SN12C): > 100 µM (inactive)
- GI50 (OVCAR-8): 25.8 µM (inactive)
- GI50 (CAKI-1): > 100 µM (inactive)
- GI50 (SK-OV-3): 29.9 µM (inactive)
- GI50 (IGROV-1): 98.4 µM (inactive)
- GI50 (HCC 2998): > 100 µM (inactive)
- GI50 (Malme-3M): > 100 µM (inactive)
- GI50 (HOP-62): 42.7 µM (inactive)
- GI50 (OVCAR-4): > 100 µM (inactive)
- GI50 (LOX IMVI): > 100 µM (inactive)
- GI50 (MCF7): 40.6 µM (inactive)
- GI50 (NCI-H226): 25.2 µM (inactive)
- GI50 (MDA-MB-231): 22.9 µM (inactive)
- GI50 (DU-145): > 100 µM (inactive)
- GI50 (OVCAR-3): > 100 µM (inactive)
- GI50 (A498): 61.7 µM (inactive)
- GI50 (EKVX): > 100 µM (inactive)
- GI50 (NCI-H23): 48 µM (inactive)
- GI50 (HCT-116): 29 µM (inactive)
- GI50 (K562): > 100 µM (inactive)
- GI50 (A549): 69.5 µM (inactive)
- GI50 (RXF 393): 40.6 µM (inactive)
- GI50 (NCI-H460): 24.7 µM (inactive)
- GI50 (PC-3): > 100 µM (inactive)
- GI50 (SK-MEL-28): > 100 µM (inactive)
- GI50 (UACC-62): 18.2 µM (inactive)
- GI50 (UACC-257): > 100 µM (inactive)
- GI50 (KM12): > 100 µM (inactive)
- GI50 (NCI/ADR-RES): 84.3 µM (inactive)
- GI50 (OVCAR-5): > 100 µM (inactive)
- GI50 (ACHN): 75.5 µM (inactive)
- GI50 (CCRF-CEM): > 100 µM (inactive)
- GI50 (BT-549): 38.7 µM (inactive)
- GI50 (MDA-MB-435): > 100 µM (inactive)
- GI50 (SW-620): > 100 µM (inactive)
- GI50 (T47D): 20.6 µM (inactive)
- GI50 (RPMI-8226): > 100 µM (inactive)
- GI50 (HL-60): > 100 µM (inactive)
- GI50 (HOP-92): 16.6 µM (inactive)
- GI50 (UO-31): 28.9 µM (inactive)
- GI50 (U-251): 33.8 µM (inactive)
- GI50 (NCI-H522): 50.4 µM (inactive)
- GI50 (SNB-19): 32.5 µM (inactive)
- GI50 (HT-29): > 100 µM (inactive)
- GI50 (SR): > 100 µM (inactive)
- GI50 (HCT-15): > 100 µM
- GI50 (M14): 83.9 µM (inactive)
- GI50 (SF-539): 17.4 µM (inactive)
- GI50 (SK-MEL-2): 41.7 µM (inactive)
- GI50 (MOLT-4): > 100 µM (inactive)

Compound: COC(=O)C1SC[C@H]2C(=O)N(c3ccccc3)C(=O)N12 (stereo partly specified)
- GI50 (SF-268): > 100 µM (inactive)
- GI50 (TK-10): > 100 µM (inactive)
- GI50 (SNB-75): > 100 µM (inactive)
- GI50 (Hs-578T): > 100 µM (inactive)
- GI50 (MDA-N): > 100 µM (inactive)
- GI50 (COLO 205): > 100 µM (inactive)
- GI50 (SK-MEL-5): > 100 µM (inactive)
- GI50 (SF-295): > 100 µM (inactive)
- GI50 (SN12C): > 100 µM (inactive)
- GI50 (OVCAR-8): > 100 µM (inactive)
- GI50 (CAKI-1): > 100 µM (inactive)
- GI50 (SK-OV-3): > 100 µM (inactive)
- GI50 (IGROV-1): > 100 µM (inactive)
- GI50 (HCC 2998): > 100 µM (inactive)
- GI50 (Malme-3M): > 100 µM (inactive)
- GI50 (HOP-62): > 100 µM (inactive)
- GI50 (OVCAR-4): > 100 µM (inactive)
- GI50 (LOX IMVI): > 100 µM (inactive)
- GI50 (MCF7): > 100 µM (inactive)
- GI50 (NCI-H226): > 100 µM (inactive)
- GI50 (MDA-MB-231): > 100 µM (inactive)
- GI50 (DU-145): > 100 µM (inactive)
- GI50 (OVCAR-3): > 100 µM (inactive)
- GI50 (A498): 21.4 µM (inactive)
- GI50 (EKVX): > 100 µM (inactive)
- GI50 (NCI-H23): > 100 µM (inactive)
- GI50 (HCT-116): > 100 µM (inactive)
- GI50 (K562): > 100 µM (inactive)
- GI50 (A549): > 100 µM (inactive)
- GI50 (RXF 393): > 100 µM (inactive)
- GI50 (NCI-H460): > 100 µM (inactive)
- GI50 (PC-3): > 100 µM (inactive)
- GI50 (786-0): > 100 µM (inactive)
- GI50 (SK-MEL-28): > 100 µM (inactive)
- GI50 (UACC-62): > 100 µM (inactive)
- GI50 (UACC-257): > 100 µM (inactive)
- GI50 (KM12): > 100 µM (inactive)
- GI50 (NCI/ADR-RES): > 100 µM (inactive)
- GI50 (OVCAR-5): > 100 µM (inactive)
- GI50 (ACHN): > 100 µM (inactive)
- GI50 (CCRF-CEM): > 100 µM (inactive)
- GI50 (BT-549): > 100 µM (inactive)
- GI50 (MDA-MB-435): > 100 µM (inactive)
- GI50 (SW-620): > 100 µM (inactive)
- GI50 (T47D): > 100 µM (inactive)
- GI50 (RPMI-8226): > 100 µM (inactive)
- GI50 (HL-60): > 100 µM (inactive)
- GI50 (HOP-92): 85.3 µM (inactive)
- GI50 (UO-31): > 100 µM (inactive)
- GI50 (U-251): > 100 µM (inactive)
- GI50 (NCI-H522): > 100 µM (inactive)
- GI50 (SNB-19): > 100 µM (inactive)
- GI50 (HT-29): > 100 µM (inactive)
- GI50 (SR): > 100 µM (inactive)
- GI50 (HCT-15): > 100 µM
- GI50 (M14): > 100 µM (inactive)
- GI50 (SF-539): > 100 µM (inactive)
- GI50 (SK-MEL-2): > 100 µM (inactive)
- GI50 (MOLT-4): > 100 µM (inactive)

Compound: CC1=Nn2c(nc3sc4c(c3c2=O)CCCC4)SC1
- GI50 (SF-268): > 58.1 µM (inactive)
- GI50 (TK-10): 53.7 µM (inactive)
- GI50 (SNB-75): 64.9 µM (inactive)
- GI50 (Hs-578T): > 90.4 µM (inactive)
- GI50 (MDA-N): 28.4 µM (inactive)
- GI50 (COLO 205): > 87.9 µM (inactive)
- GI50 (SK-MEL-5): 62.4 µM (inactive)
- GI50 (SF-295): > 100 µM (inactive)
- GI50 (SN12C): > 78.5 µM (inactive)
- GI50 (OVCAR-8): > 100 µM (inactive)
- GI50 (CAKI-1): > 100 µM (inactive)
- GI50 (SK-OV-3): > 100 µM (inactive)
- GI50 (IGROV-1): > 76.4 µM (inactive)
- GI50 (HCC 2998): 99.5 µM (inactive)
- GI50 (Malme-3M): > 94.2 µM (inactive)
- GI50 (HOP-62): > 100 µM (inactive)
- GI50 (OVCAR-4): 71.3 µM (inactive)
- GI50 (LOX IMVI): 21.4 µM (inactive)
- GI50 (MCF7): > 77.6 µM (inactive)
- GI50 (NCI-H226): > 100 µM (inactive)
- GI50 (MDA-MB-231): > 50.4 µM (inactive)
- GI50 (DU-145): > 86.1 µM (inactive)
- GI50 (OVCAR-3): 76 µM (inactive)
- GI50 (A498): > 50.1 µM (inactive)
- GI50 (EKVX): > 69.5 µM (inactive)
- GI50 (NCI-H23): > 100 µM (inactive)
- GI50 (HCT-116): 82 µM (inactive)
- GI50 (K562): 39.9 µM (inactive)
- GI50 (A549): > 83.6 µM (inactive)
- GI50 (RXF 393): > 75.7 µM (inactive)
- GI50 (NCI-H460): 48.2 µM (inactive)
- GI50 (PC-3): 63 µM (inactive)
- GI50 (786-0): > 81.3 µM (inactive)
- GI50 (SK-MEL-28): > 100 µM (inactive)
- GI50 (UACC-62): 76.4 µM (inactive)
- GI50 (UACC-257): > 100 µM (inactive)
- GI50 (KM12): > 83.9 µM (inactive)
- GI50 (NCI/ADR-RES): 98.6 µM (inactive)
- GI50 (OVCAR-5): > 100 µM (inactive)
- GI50 (ACHN): > 51.6 µM (inactive)
- GI50 (CCRF-CEM): 35.3 µM (inactive)
- GI50 (BT-549): 31.5 µM (inactive)
- GI50 (MDA-MB-435): > 77.1 µM (inactive)
- GI50 (SW-620): > 57.8 µM (inactive)
- GI50 (T47D): 58.5 µM (inactive)
- GI50 (RPMI-8226): 69.2 µM (inactive)
- GI50 (HL-60): 34.8 µM (inactive)
- GI50 (HOP-92): 36.1 µM (inactive)
- GI50 (UO-31): 37.8 µM (inactive)
- GI50 (U-251): 45.5 µM (inactive)
- GI50 (NCI-H522): 53.2 µM (inactive)
- GI50 (SNB-19): 90.2 µM (inactive)
- GI50 (HT-29): > 88.7 µM (inactive)
- GI50 (SR): 57 µM (inactive)
- GI50 (HCT-15): 52.6 µM
- GI50 (M14): > 100 µM (inactive)
- GI50 (SF-539): > 48.6 µM (inactive)
- GI50 (SK-MEL-2): > 100 µM (inactive)
- GI50 (MOLT-4): 44.2 µM (inactive)
